According to patent US7018642B2 (The Procter & Gamble Company, priority 2001, dated 2006):
Several values for one entry are separate records, joined by “and”; a condition that tells them apart may be missing. Equal values may be shown once.

test system: S. epidermidis; experiment: 3-piece growth-chamber array (3P-GCA) biofilm growth test on bathroom tile; type: cell-based, Staphylococcus epidermidis; settings: S. epidermidis on standard white matte bathroom tile, 72 hours, two medium exchanges; replicate wells A, B, C; smaller = prevention; inoculated control 1.870-2.387
Method: Wells in the block bottom are filled with 0.5–1 mL of the media described in Reference Example 1, and inoculated with 5–10 μL of overnight cultures of the bacterial strains described in Reference Example 1. The block bottom and top that contain a standard-size, white bathroom tile are then aligned and clamped together, and the assembly placed on a tissue culture rotator (VWR Scientific) set at a rotation speed of 1–3 rpm, or in a shaking incubator, at the appropriate temperature, for 24 hours. Optionally, the 1 mL liquid medium in each well is then replaced with fresh medium, and incubation continued for an additional 24 hours; this sequence of medium replacement and continued growth is done from 1–3 times, to generate biofilms of the desired thickness. After growth, the block bottom is removed, the liquid is removed and replaced with 200 μL of a 1% CV solution (in ˜10% ethanol). The block is then reassembled, re-positioned on the tissue culture rotator and incubated with the settings described above for 15–75 minutes to stain the biofilms. The block pieces are disassembled, and the top block that contains the tile surface is rinsed under a gentle stream of deionized water until all unbound dye is visibly removed. Optionally, any excessive dye adsorbed to the sides of the wells of the block bottom is removed using a test tube brush and a commonly available detergent formulation; this helps to reduce any background due to non-specific staining that can sometimes occur. As a faster alternative, the stained block bottom is simply interchanged with a new or pre-cleaned block bottom. Bound dye on the tile surface is then extracted by pipetting 0.5–1.0 mL of a solution of 1% sodium deoxycholate in 95% ethanol (and optionally 4–6 glass beads 1–3 mm in diameter to assist dye removal) into each well, reassembling the block top and bottom, and either repositioning on the tissue culture rotator followed by incubation using the settings described above for 0.5–2 hours, or alternatively, vortexing vigorously for 1–5 minutes. Subsequently, either undiluted or diluted (in ethanol) samples of extracted CV pipetted from the disassembled blocks are transferred to flat bottom, polystyrene microtiter plates and absorbances are measured in a microplate reader, and compared to controls, as described in Reference Example 1. […] Use of the 3P-GCA is the same as for the 2P-GCA described in Reference Example 5, except that when liquid growth media are being replaced in the wells of the block bottom, only one of the lid assemblies is removed. This arrangement has the advantage that if sensitive biofilms are being investigated, they are not disturbed at all during the entire method. If the biofilms being investigated are not sensitive to disturbance, then an additional advantage of the 3P-GCA is that it can be used to grow biofilms on both surfaces 30 of each lid assembly 90, especially if the 3P-GCA is mounted on a tissue culture rotator for biofilm growth, such that liquid growth media contacts both surfaces 30. […] Polypropylene block components are used. Data are reported as optical density measurements for 3 replicates of inoculated wells per compound tested, with 3 inoculated and three uninoculated control well replicates, corresponding to columns 1 (compound 32), 2 (compound 168), 3 (compound 226), 4 (inoculated control), and 5 (uninoculated control). Smaller numbers indicate prevention of biofilm growth.

SMILES	optical density of extracted crystal violet (biofilm growth)
CCCCCCCCCCCCNC(=O)[C@@H]1CCCN1 [Compound 168]	1.981 and 1.581 and 1.517
O=C(NCCCCCCCCCCCCNC(=O)[C@H]1CCCN1)[C@H]1CCCN1 [Compound 226, D-proline 1,12-diaminododecane bisamide]	0.202 and 0.269 and 0.147
CCCCCCCCCCNC(=O)[C@@H]1CCCN1 [Compound 32, L-proline n-decyl amide]	0.175 and 0.244 and 0.207

same assay, conditions: S. epidermidis on white matte bathroom tile, 72 hours

SMILES	biofilm prevention activity in 3P-GCA method (in words)
CCCCCCCCCCCCNC(=O)[C@@H]1CCCN1 [Compound 168]	much more modest effect
O=C(NCCCCCCCCCCCCNC(=O)[C@H]1CCCN1)[C@H]1CCCN1 [Compound 226, D-proline 1,12-diaminododecane bisamide]	strong biofilm prevention activity
CCCCCCCCCCNC(=O)[C@@H]1CCCN1 [Compound 32, L-proline n-decyl amide]	strong biofilm prevention activity

test system: S. epidermidis strain ATCC 35984; experiment: Biofilm prevention screen (96-well microplate, crystal violet); type: cell-based; settings: Staphylococcus epidermidis, ATCC35984, 32 μM, positive = prevention, negative = enhancement of biofilm formation, quadruplicate, read-out: average percentage reduction of biofilm formed relative to DMSO controls
How it was run: (§1)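 Each strain grown in its own modified medium (PAO1: R2A, no Mg^2+, 0.3–0.5% fructose, 3 μM ferrous ammonium sulfate; ATCC 13525: R2A with pyruvate; ATCC 35984: ¼ TSB, 1% fructose). Compounds at three final concentrations (e.g. 250–500, 160, 32 μM), shaken 16–26 h at 30° C. (pseudomonads) or 37° C. (S. epidermidis). Crystal violet A586; % biofilm reduction versus DMSO, quadruplicate means.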

SMILES	inhibition at 32 µM
CCCCCCCCCCCCNC(=O)[C@@H]1CCCN1 [Compound 168]	101%
O=C(NCCCCCCCCCCCCNC(=O)[C@H]1CCCN1)[C@H]1CCCN1 [Compound 226, D-proline 1,12-diaminododecane bisamide]	24%
CCCCCCCCCCNC(=O)[C@@H]1CCCN1 [Compound 32, L-proline n-decyl amide]	-3%

same assay, conditions: Staphylococcus epidermidis, ATCC35984, 160 μM, positive = prevention, negative = enhancement of biofilm formation, quadruplicate, read-out: average percentage reduction of biofilm formed relative to DMSO controls

SMILES	inhibition at 160 µM
CCCCCCCCCCCCNC(=O)[C@@H]1CCCN1 [Compound 168]	100%
O=C(NCCCCCCCCCCCCNC(=O)[C@H]1CCCN1)[C@H]1CCCN1 [Compound 226, D-proline 1,12-diaminododecane bisamide]	101%
CCCCCCCCCCNC(=O)[C@@H]1CCCN1 [Compound 32, L-proline n-decyl amide]	100%

same assay, conditions: Staphylococcus epidermidis, ATCC35984, 390 μM, positive = prevention, negative = enhancement of biofilm formation, quadruplicate, read-out: average percentage reduction of biofilm formed relative to DMSO controls

SMILES	inhibition at 390 µM
CCCCCCCCCCCCNC(=O)[C@@H]1CCCN1 [Compound 168]	98%
O=C(NCCCCCCCCCCCCNC(=O)[C@H]1CCCN1)[C@H]1CCCN1 [Compound 226, D-proline 1,12-diaminododecane bisamide]	100%
CCCCCCCCCCNC(=O)[C@@H]1CCCN1 [Compound 32, L-proline n-decyl amide]	97%

test system: P. fluorescens strain ATCC 13525; experiment: as above; type: cell-based; settings: Pseudomonas fluorescens, ATCC13525, 32 μM, positive = prevention, negative = enhancement of biofilm formation, quadruplicate, read-out: average percentage reduction of biofilm formed relative to DMSO controls
How it was run: as §1

SMILES	inhibition at 32 µM
CCCCCCCCCCCCNC(=O)[C@@H]1CCCN1 [Compound 168]	26%
O=C(NCCCCCCCCCCCCNC(=O)[C@H]1CCCN1)[C@H]1CCCN1 [Compound 226, D-proline 1,12-diaminododecane bisamide]	-19%
CCCCCCCCCCNC(=O)[C@@H]1CCCN1 [Compound 32, L-proline n-decyl amide]	9%

same assay, conditions: Pseudomonas fluorescens, ATCC13525, 160 μM, positive = prevention, negative = enhancement of biofilm formation, quadruplicate, read-out: average percentage reduction of biofilm formed relative to DMSO controls

SMILES	inhibition at 160 µM
CCCCCCCCCCCCNC(=O)[C@@H]1CCCN1 [Compound 168]	97%
O=C(NCCCCCCCCCCCCNC(=O)[C@H]1CCCN1)[C@H]1CCCN1 [Compound 226, D-proline 1,12-diaminododecane bisamide]	10%
CCCCCCCCCCNC(=O)[C@@H]1CCCN1 [Compound 32, L-proline n-decyl amide]	55%

same assay, conditions: Pseudomonas fluorescens, ATCC13525, 390 μM, positive = prevention, negative = enhancement of biofilm formation, quadruplicate, read-out: average percentage reduction of biofilm formed relative to DMSO controls

SMILES	inhibition at 390 µM
CCCCCCCCCCCCNC(=O)[C@@H]1CCCN1 [Compound 168]	93%
O=C(NCCCCCCCCCCCCNC(=O)[C@H]1CCCN1)[C@H]1CCCN1 [Compound 226, D-proline 1,12-diaminododecane bisamide]	69%
CCCCCCCCCCNC(=O)[C@@H]1CCCN1 [Compound 32, L-proline n-decyl amide]	95%
